Experimental data taken from patent US11939327B2, “Heterocyclic compounds” (Takeda Pharmaceutical Company Limited, priority 2017, dated 2024).

Tests used:
[1] = target: T1, human GluR1 flip (Homo sapiens, UniProt P42261); experiment: AMPA receptor function-enhancing activity using calcium influx as index (CHO-K1/GluR1 flip/stargazin-expressing cells); format: cell-based; conditions: CHO-K1, test compound 30 μM with 3 mM glutamic acid, 100% = 3 mM glutamic acid + 300 μM cyclothiazide, 0% = 3 mM glutamic acid alone, read-out: hGluR1 flip/30 μM (%)
T1 construct: expressed in transfected cells; host or cells: CHO-K1
T1 sequence (P42261 19-906 isoform P42261-2 limits assumed): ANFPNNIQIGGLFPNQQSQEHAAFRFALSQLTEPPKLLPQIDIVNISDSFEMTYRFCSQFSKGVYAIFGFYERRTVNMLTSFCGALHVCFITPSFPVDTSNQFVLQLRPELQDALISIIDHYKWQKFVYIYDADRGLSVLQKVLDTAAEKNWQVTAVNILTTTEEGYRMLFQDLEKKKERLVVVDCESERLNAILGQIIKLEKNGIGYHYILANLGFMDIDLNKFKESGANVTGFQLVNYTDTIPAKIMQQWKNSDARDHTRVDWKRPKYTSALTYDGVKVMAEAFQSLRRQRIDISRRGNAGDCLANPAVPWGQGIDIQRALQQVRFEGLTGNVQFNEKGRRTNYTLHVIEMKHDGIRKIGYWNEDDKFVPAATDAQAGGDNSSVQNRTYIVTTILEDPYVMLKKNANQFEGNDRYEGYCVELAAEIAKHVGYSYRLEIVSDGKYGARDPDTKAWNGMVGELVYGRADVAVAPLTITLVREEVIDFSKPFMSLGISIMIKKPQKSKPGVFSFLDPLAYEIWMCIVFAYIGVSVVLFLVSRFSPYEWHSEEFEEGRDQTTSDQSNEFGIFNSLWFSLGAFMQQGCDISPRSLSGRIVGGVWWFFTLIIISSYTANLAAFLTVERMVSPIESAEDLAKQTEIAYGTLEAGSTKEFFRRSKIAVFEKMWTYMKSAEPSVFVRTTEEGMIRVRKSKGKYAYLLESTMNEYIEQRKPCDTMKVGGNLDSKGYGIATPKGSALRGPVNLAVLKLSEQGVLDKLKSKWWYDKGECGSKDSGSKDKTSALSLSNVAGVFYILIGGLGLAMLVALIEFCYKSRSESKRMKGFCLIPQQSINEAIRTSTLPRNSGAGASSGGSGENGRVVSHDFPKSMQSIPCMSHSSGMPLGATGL
T1 sequence (Q9Y698 whole entry partner): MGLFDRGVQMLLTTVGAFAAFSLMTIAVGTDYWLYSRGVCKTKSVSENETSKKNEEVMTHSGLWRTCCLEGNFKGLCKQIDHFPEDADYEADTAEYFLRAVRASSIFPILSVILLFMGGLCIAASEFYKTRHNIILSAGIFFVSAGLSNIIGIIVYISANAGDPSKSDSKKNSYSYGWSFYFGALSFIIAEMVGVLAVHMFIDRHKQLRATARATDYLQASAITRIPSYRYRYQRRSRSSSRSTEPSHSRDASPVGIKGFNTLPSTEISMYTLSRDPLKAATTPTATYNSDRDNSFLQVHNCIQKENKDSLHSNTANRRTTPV
Excerpt: Experimental Example 1 Measurement method of AMPA receptor function-enhancing activity of compound using calcium influx as index
(1) Construction of Expression Gene
Human GluR1 flip cDNA was amplified by PCR method using forward primer […] (SEQ ID NO: 1) and reverse primer […] (SEQ ID NO: 2) artificially synthesized using human brain-derived cDNA (BD Bioscience) as a template. The amplified product was digested with restriction enzymes EcoRI, NotI (TAKARA SHUZO CO. LTD.) and incorporated into the same site of pcDNA3.1(+) (Invitrogen) to construct pcDNA3.1(+)/human GluR1 flip gene. Human stargazin cDNA was amplified by PCR method using forward primer […] (SEQ ID NO: 3) and reverse primer […] (SEQ ID NO: 4) artificially synthesized using human hippocampus cDNA as a template. The amplified product was digested with restriction enzymes XhoI, BamHI (TAKARA SHUZO CO. LTD.) and incorporated into the same site of pcDNA3.1(−) (Invitrogen) to construct pcDNA3.1 Zeo(−)/human stargazing gene.
(2) Construction of GluR1 Flip/Stargazin Expressing Cell
CHO-K1 cells passaged in a culture medium (Ham's F12 medium (Invitrogen) added with 10% inactivated fetal bovine serum (Morgate) and penicillin, streptomycin (Invitrogen)) were detached using 0.05% trypsin and 0.53 mM EDTA (Invitrogen) diluted with D-PBS(−). The detached cells were suspended in a culture medium, and recovered by centrifugation at 1,000 rpm. The recovered cells were re-suspended in D-PBS(−) and added into 0.4 cm electroporation cuvette (BioRad). pcDNA3.1(+)/human GluR1 flip gene (5 μg) and pcDNA3.1 Zeo(−)/human stargazin gene (15 μg) were added, and introduced into CHO-K1 cells under the conditions of 950 μFd, […] and using Gene Pulser II (BioRad). The introduced cells were cultured overnight in a culture medium. The next day, using a selection medium (culture medium added with zeocin (Invitrogen) at 250 μg/mL), the cells were plated in a 96 well plate at 250 cells/well. The clones showing drug resistance were selected, and GluR1 flip/stargazin expression clones were selected by an assay method shown below using calcium influx as an index.
(3) Measurement Method of AMPA Receptor Function-Enhancing Activity of Compound, Using Calcium Influx as an Index
CHO-K1/GluR1 flip/stargazin-expressing cells were plated on a 384 well black bottom transparent plate, and cultured for 2 days in a CO2 incubator (SANYO ELECTRIC Co. Ltd.) at 37° C. The medium of the cell plate was removed. A calcium indicator (Calcium5 Assay Kit, Molecular Devices) was diluted with an assay buffer (HBSS (Thermo Fisher Scientific), 0.1% BSA (Merck Millipoer) and 10 mM HEPES (Thermo Fisher Scientific)), and 1.25 mM probenecid (Dojindo Laboratories) was added thereto. The mixture prepared above was added at 30 μL/well (100 μL/well in case of 96 wells) to the well, and the well was left standing in 37° C., CO2 incubator for 1 hr. The cell plate was set in CellLux (PerkinElmer), a mixture (15 μL) (50 μL/well in case of 96 wells) of […] glutamic acid (final concentration 3 mM) diluted with an assay buffer and a test compound (test compound concentration 30 μM) was added thereto, and variation in the amount of fluorescence was measured for 3 min. The variation of fluorescence level of a well added with final concentration 3 mM of glutamic acid and 300 μM cyclothiazide (TOCRIS) was defined as 100%, the variation of fluorescence level of a well added with final concentration 3 mM of glutamic acid alone was defined as 0%, and the activity of the compound was calculated by the following formula. activity (%)=(X−C)/(T−C)×100 • T: variation of fluorescence level of well added with final concentration 3 mM of glutamic acid and 300 μM cyclothiazide • C: variation of fluorescence level of well added with final concentration 3 mM of glutamic acid alone • X: variation of fluorescence level of well added with test compound

[2] = tested on: Long Evans rats; experiment: Novel object recognition test; format: in vivo, rat; conditions: male Long Evans rats; for Novel Object Interaction (%): 1 mg/kg p.o. 1 hr before acquisition trial and 1 hr before retention trial, retention trial 48 hr after acquisition, mean ± standard error; for novel object interaction (result in words): 1 mg/kg p.o., versus 0 mg/kg
Excerpt: Experimental Example 2 Novel Object Recognition Test
Male Long Evans rats were supplied by Japan SLC, and used at 7-week-old in the experiments. After arrival to the vivarium, animals were allowed a minimum of 1 week for acclimation. They were housed under a 12:12-h light/dark cycle in a temperature- and humidity-controlled laboratory and allowed food and water ad libitum.
A test compound was suspended in 0.5% methylcellulose in distilled water and orally administered (p.o.). All test compounds were dosed in a volume of 2 mL/kg body weight for rats.
(3) Novel Object Recognition Test
Novel object recognition test is a test system utilizing the novel object preference characteristics of rodents. This novel object recognition test consists of two trials, “acquisition trial” and “retention trial”, and, when an interval between these two trials is short, rodents spend a longer period for novel object exploration behaviors, and the preference dissipates as the interval gets longer. From this, the behavioral change in the novel object recognition test is considered to reflect the rodents' memory of the object during the acquisition trial. In this experimental example, the retention trial was carried out 48 hr after the acquisition trial. On the day before the test, for acclimation, Long-Evans rats were allowed to freely move about the test box (40×40×50 cm) for 10 minutes. On the test day, the rats were acclimated to the test room for about 1 hr prior to the test. The test compound (Compound A (Example 10), Compound B (Example 35), 1 mg/kg) were orally administered to the rats twice 1 hr before the acquisition trial and 1 hr before the retention trial. For the acquisition trial, two identical objects (A1, A2) were placed in the test box. The rats were put in the test box for 3 min, and the duration contacting each object was measured. The retention trial was carried out 48 hr after the acquisition trial. For the retention trial, the familiar object (A3) used for the acquisition trial and the novel object (B) different shape from A3 were placed in the test box. The rats were put in the test box for 3 min. The duration contacting each object in the acquisition trial and the retention trial, and the novel object interaction (%) was calculated. The novel object interaction (%) was expressed as (the duration contacting the novel object)/[(the duration contacting the novel object)+(the duration contacting the familiar object)]×100(%) at mean±standard error.

| Compound | activation at 30 µM [1] | Novel Object Interaction (%) [2] | novel object interaction (result in words) [2] |
| --- | --- | --- | --- |
| O=C(c1ccc(-c2nccc3c2nc(C(F)(F)F)n3CC(F)F)cc1F)N1CCOCC1 [Example 10, (4-(1-(2,2-difluoroethyl)-2-(trifluoromethyl)-1H-imidazo[4,5-c]pyridin-4-yl)-2-fluorophenyl)(morpholin-4-yl)methanone] | 90.5% | 56.32 ± 1.56% | increased |
| O=C(c1ncc(-c2cccc3c2nc(C(F)(F)F)n3CC(F)F)cc1F)N1CCOCC1 [Example 35, (5-(1-(2,2-difluoroethyl)-2-(trifluoromethyl)-1H-benzimidazol-4-yl)-3-fluoropyridin-2-yl)(morpholin-4-yl)methanone] | 81.2% | 61.28 ± 2.35% | increased |
